The values below come from patent publication US9751858B2, “3-heteroaroylamino-propionic acid derivatives and their use as pharmaceuticals” (SANOFI, priority 2011, dated 2017).

Experiment [1] deals with platelet aggregation. The settings on record: hypertensive animals; H. Ostrowska et al., J. Cardiovasc. Pharmacol. 45 (2005); cited from earlier work.
The target in experiment [2] is T1, Recombinant human cathepsin A (Homo sapiens, UniProt P10619).
T1 construct: Recombinant human cathepsin A (residues 29-480, with a C-terminal 10-His tag); 10-His (C); purchased R&D Systems 1049-SE
T1 sequence (P10619 29-326 limits assumed): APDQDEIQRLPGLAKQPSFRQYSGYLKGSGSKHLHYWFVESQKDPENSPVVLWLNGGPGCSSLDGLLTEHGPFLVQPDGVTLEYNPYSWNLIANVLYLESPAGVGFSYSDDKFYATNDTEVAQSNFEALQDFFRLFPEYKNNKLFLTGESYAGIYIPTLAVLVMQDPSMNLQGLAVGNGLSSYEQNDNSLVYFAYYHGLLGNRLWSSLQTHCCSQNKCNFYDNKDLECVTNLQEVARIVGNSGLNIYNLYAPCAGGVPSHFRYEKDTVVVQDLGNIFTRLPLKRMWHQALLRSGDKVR
T1 sequence (P10619 327-480 limits assumed): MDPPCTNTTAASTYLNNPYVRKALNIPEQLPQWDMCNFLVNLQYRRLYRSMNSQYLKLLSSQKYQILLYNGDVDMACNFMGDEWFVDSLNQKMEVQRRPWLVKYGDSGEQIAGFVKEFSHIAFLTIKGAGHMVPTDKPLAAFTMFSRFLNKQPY
As to the kind of experiment: Cathepsin A inhibitory activity. To be noted: activated recombinant human cathepsin A 833 ng/ml, Bodipy FL-labeled bradykinin 2 μM, pH 5.5, 15 min room temperature. It is filed as biochemical. The method in brief:
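Cathepsin A activated by cathepsin L (15 min, 37 °C, pH 6.0), then preincubated 15 min at room temperature with compound in 25 mM MES pH 5.5, 5 mM DTT. Bodipy FL-bradykinin cleavage ran 15 min at room temperature; substrate and product separated by microfluidic capillary electrophoresis, turnover from peak areas.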

Consider `CC[C@@H](C)[C@@H](O)[C@H](C)C(=O)[C@H](C)/C=C(\C)C[C@H](C)[C@@H]1OC(=O)[C@H]1CC` [ebelactone B], for which the platelet aggregation entry in experiment [1] is “suppresses platelet aggregation”.

Take `COc1cccc([C@H](CC(=O)O)NC(=O)c2nc(-c3ccccc3)oc2C(F)(F)F)c1OC` [Example 120, (S)-3-(2,3-Dimethoxy-phenyl)-3-[(2-phenyl-5-trifluoromethyl-oxazole-4-carbonyl)-amino]-propionic acid]: the IC50 in experiment [2] turned out to be 8.01 µM.

For `O=C(O)C[C@H](NC(=O)c1nc(-c2ccccc2)n(-c2ccccc2)n1)c1ccccc1` [Example 69, (S)-3-[(1,5-Diphenyl-1H-[1,2,4]triazole-3-carbonyl)-amino]-3-phenyl-propionic acid], the IC50 in experiment [2] is 0.387 µM.

With `O=C(O)C[C@H](NC(=O)c1noc(-c2cccc(F)c2F)n1)c1ccccc1` [Example 20, (S)-3-{[5-(2,3-Difluoro-phenyl)-[1,2,4]oxadiazole-3-carbonyl]-amino}-3-phenyl-propionic acid], the IC50 in experiment [2] is 7.35 µM.

For `Cc1ccccc1[C@H](CC(=O)O)NC(=O)c1noc(-c2cccc(F)c2F)n1` [Example 42, (S)-3-{[5-(2,3-Difluoro-phenyl)-[1,2,4]oxadiazole-3-carbonyl]-amino}-3-o-tolyl-propionic acid], the half-inhibitory concentration (IC50) in experiment [2] is > 10 µM.

Turning to `Cc1cccc([C@H](CC(=O)O)NC(=O)CCc2nc(-c3ccccc3F)no2)c1` [Example 50, (S)-3-{3-[3-(2-Fluoro-phenyl)-[1,2,4]oxadiazol-5-yl]-propionylamino}-3-m-tolyl-propionic acid], the IC50 in experiment [2] is > 10 µM.

In the case of `Cc1cccc([C@H](CC(=O)O)NC(=O)c2nc(-c3ccccc3F)oc2C)c1` [Example 27, (S)-3-{[2-(2-Fluoro-phenyl)-5-methyl-oxazole-4-carbonyl]-amino}-3-m-tolyl-propionic acid], the IC50 in experiment [2] amounted to 3.49 µM.

Turning to `CC(C)c1oc(-c2ccccc2)nc1C(=O)N[C@@H](CC(=O)O)c1ccc(F)cc1` [Example 48, (S)-3-(4-Fluoro-phenyl)-3-[(5-isopropyl-2-phenyl-oxazole-4-carbonyl)-amino]-propionic acid], in experiment [2], the IC50 came to 1.82 µM.

`CCc1nc(C(=O)N[C@@H](CC(=O)O)c2ccc(C)cc2)nn1-c1c(Cl)cccc1Cl` [Example 107, (S)-3-{[1-(2,6-Dichloro-phenyl)-5-ethyl-1H-[1,2,4]triazole-3-carbonyl]-amino}-3-p-tolyl-propionic acid]: the IC50 in experiment [2] turned out to be 0.545 µM.

On to `Cc1oc(-c2ccccc2)nc1C(=O)N[C@@H](CC(=O)O)c1ccccc1F` [Example 7, (S)-3-(2-Fluoro-phenyl)-3-[(5-methyl-2-phenyl-oxazole-4-carbonyl)-amino]-propionic acid], for which the IC50 in experiment [2] came to 4.13 µM.
